This is an account of results in publication PMC6789589, “A Convenient Synthetic Method to Improve Immunogenicity of Mycobacterium tuberculosis Related T-Cell Epitope Peptides” (Vaccines, 2019).

In one data set the test system is antigen presenting cells. Briefly: Time course of cellular uptake by flow cytometry. It counts as cell-based. As to conditions: incubation 15 min to 16 h, FITC-positive cells and mean fluorescence intensity (Figure 3c). Here is the method: To further analyze the internalization of the compounds, the time course of the cellular uptake rate was measured by flow cytometry. […] The internalization rate of pal-A(P)I conjugate was very fast.
Figure 3 Detailed study on the cellular uptake by antigen presenting cells and the time course of internalization. Fluorescence intensity of compound treated cells was analyzed by flow cytometry (a) with or without trypsinization, and (b) in the presence or absence of trypan blue. No significant differences were observed after eliminating the fluorescent signal from adsorbed peptides or conjugates. (c) To study the time course of internalization, different incubation periods (15 min, 1 h, 3 h, 6 h, and 16 h) were applied, and the intracellular fluorescence intensity was measured. (d) The viability of compound-treated cells was compared to untreated control cells, and relative viabilities are presented. The viability of the control cells was always > 85% (results are represented as mean ± SEM, n = 3).
On the technique in general: In flow cytometry, cells or beads pass a laser one at a time.

For data set [1], the system named is MonoMac6 human monocytes (MM6). Briefly: Cellular uptake (internalization) by flow cytometry in MonoMac6. As to conditions: Cf-labelled compounds, MM6, 2.5 µM, 2 h, flow cytometry histograms (Figure S1).
Method: Internalization of the compounds was measured in the MonoMac6 (MM6) human monocytic cell line [31] and on murine bone marrow-derived macrophages (BMDMs). MonoMac6 cells were maintained as an adherent culture in RPMI-1640 supplemented with 10% heat-inactivated fetal calf serum (FCS) L-glutamine (2 mM) and gentamicin (35 μM) at 37 °C in a humidified atmosphere containing 5% CO2. […] For the assay, cells were treated with peptides at 2.5 µM final concentration and were incubated for 2 hours. After centrifugation (1000 rpm, 5 min) and washing with serum-free RPMI medium, supernatant was removed and 100 μL 0.25% trypsin was added to the cells. After 5 min incubation, 0.8 mL 10% FCS/HPMI medium was added, then cells were washed and re-suspended in 0.3 mL HPMI medium. The intracellular fluorescence intensity of the cells was measured on a BD LSR II flow cytometer (BD Biosciences, San Jose, CA, USA) on channel FITC (emission at λ = 505 nm) and data were analyzed with FACSDiva 5.0 software (BD Biosciences, San Jose, CA, USA). External fluorescence quenching was performed by adding 10 µL of 0.04% trypan blue solution. […]
treated with the compounds, then cells were analyzed by flow cytometry. To quantify viable cells, […]
negative control, RPMI medium was used (b) and the FITC-negative population was determined on this
The subject of the next data set is MM6 cells. Briefly: Intracellular localization by confocal laser scanning microscopy. As to conditions: Cf-labelled peptides, 60 min; P/A/I mix 5 µM, A(P)I 2.5 µM, pal-A(P)I 0.5 µM. It counts as cell-based, human. Here is the method:
Cellular uptake and localization were visualized by confocal microscopy. MM6 cells were seeded (10^5 cells/well) one day prior to treatment on cover glass containing 24-well plates (Sarstedt, Nümbrecht, Germany). Lysosomes were stained by LysoTracker^TM Deep Red (Invitrogen, Carlsbad, CA, USA) for 30 min, followed by incubation with Cf-labeled peptides for 60 min. Subsequently, nuclei were stained by Hoechst 33342 solution (Thermo Scientific, Waltham, MA, USA). After each step, cells were washed three times with serum-free medium. Cells were fixed by 4% paraformaldehyde for 15 min and mounted to microscopy slides with Mowiol® 4–88. Imaging was performed on a Zeiss LSM 710 system with 40× oil immersion objective. Images were processed with ZEN lite software (Zeiss, Oberkochen, Germany).
Localization of the compounds was visualized by confocal laser scanning microscopy in MM6 cells (Figure 2c). Cells were incubated with Cf-labelled peptides for 60 min; moreover, nuclei and lysosomes were also stained. The peptide concentrations for P/A/I mix, A(P)I, and pal-A(P)I were 5, 2.5, and 0.5 µM, respectively. As different compound concentrations and laser intensities were also used to visualize the compounds showing low or high internalization, the presented images give information about the intracellular localization and are not to be considered in a quantitative manner.

Data set [2] deals with human erythrocyte suspension. In words: Hemolytic activity assay on human erythrocyte suspension. As to conditions: 2% (v/v) human erythrocyte suspension, 2 h, 37 °C, 0.05–100 µM. It counts as cell-based. Here is the method:
The hemolytic activity of the compounds was measured on human erythrocyte suspension. Cytotoxicity was assayed on murine BMDM. These two experiments are detailed in the Supplementary Information.
The hemolytic activity of the compounds was assayed as described previously. Briefly, peripheral blood from healthy volunteers was collected in vacuum tubes containing heparin (Li-heparin LH, VenoSafe) as anticoagulant. Tubes were centrifuged (1000 g, 5 min) and the pellet was washed three times with RPMI-1640 (culturing medium without phenol red). RPMI medium was added to the pellet to yield a final 2% (v/v) RBC suspension. […]
0.5%). […] After centrifugation (1000 g, 5 min), 100 µL of the supernatant was transferred to a flat-bottom microtiter plate and absorbance was measured at 414 nm using an ELISA plate reader (iEMS Reader, Labsystems). The percentage hemolysis was compared to a hemolytic control peptide (CM15, 200 μM) treated RBC and the concentration of peptide at which 50% hemolysis occurred (HC50 value) was determined. Compounds were measured in triplicates.
The cytotoxic effect of the compounds was measured on murine BMDMs. […] The precipitated purple crystals were dissolved in 100 μL DMSO, and after 10 minutes agitation, the absorbance was determined at λ = 540 nm and 620 nm using an ELISA plate reader (iEMS Reader, Labsystems). […]
1 Determined on 2% (v/v) human erythrocyte suspension. […]

Data set [3] can be described thus: Water solubility (observation). It counts as physicochemical.

Starred links: 1 amine or outer side, 2 acyl side, 3 side chain; linkers in the order of their positions; H or OH if unused. Positions of bridges follow the written chain, without caps; N, C: chain ends. Residues, ends and D or L forms follow the SMILES beside them. Chains are numbered I, II in the order given. *: point of attachment. X1 = O=C1CC([*:2])C(=O)N1CCCCCC(=O)[*:1]; Palmitoyl = CCCCCCCCCCCCCCCC(=O)* A value given as a limit tells only on which side of the number the result lay.

On to `CC[C@H](C)[C@H](NC(=O)CNC(=O)[C@H](Cc1ccccc1)NC(=O)[C@@H](N)Cc1ccccc1)C(=O)N[C@@H](CC(N)=O)C(=O)N[C@H](C(=O)N[C@H](C(=O)N1CCC[C@H]1C(=O)N[C@H](C(=O)N[C@@H](C)C(=O)N[C@@H](CSC1CC(=O)N(CCCCCC(=O)NCCCC[C@H](NC(=O)[C@@H](NC(=O)[C@H](CC(C)C)NC(=O)[C@H](CCCNC(=N)N)NC(=O)[C@@H](NC(=O)[C@H](CC(N)=O)NC(=O)[C@H](CC(N)=O)NC(=O)[C@H](C)NC(=O)[C@@H](NC(=O)[C@H](CC(C)C)NC(=O)[C@H](CCCCN)NC(C)=O)C(C)C)[C@@H](C)O)[C@@H](C)O)C(=O)N2CCC[C@H]2C(=O)N[C@@H](CCCCN)C(=O)NCC(=O)NCC(=O)N[C@@H](CC(C)C)C(=O)N[C@H](C(=O)N[C@@H](CC(=O)O)C(=O)N[C@H](C(=O)N[C@@H](C)C(=O)N2CCC[C@H]2C(=O)N[C@@H](Cc2c[nH]cn2)C(=O)N[C@@H](CCC(N)=O)C(=O)N[C@H](C(=O)N[C@@H](CO)C(=O)N[C@@H](CO)C(=O)N[C@H](C(N)=O)C(C)C)[C@@H](C)CC)[C@@H](C)CC)[C@@H](C)CC)C1=O)C(N)=O)[C@@H](C)CC)[C@@H](C)CC)[C@@H](C)O` (some centres unmarked) [A(P)I, KLVANNTRL-TKmal(FFGINTIPIAC)PKG-GLIDIAPHQISSV] (I: Ac-KLVANNTRLTKPKGGLIDIAPHQISSV-NH2 / II: H-FFGINTIPIAC-NH2; linker I:11-II:11 via X1; N-terminus and C-terminus assumed), for which the “time course of internalization, in words” value in the data set with antigen presenting cells is given as “significantly slower than the internalization of pal-A(P)I”. Also, in data set [1], the “percentage of FITC-positive cells” value is given as 21.5%. Further, the intracellular localization result in the data set on MM6 cells is listed as “colocalization with lysosomes that was even more pronounced”.

On to `CCCCCCCCCCCCCCCC(=O)N[C@@H](CCCCN)C(=O)N[C@@H](CC(C)C)C(=O)N[C@H](C(=O)N[C@@H](C)C(=O)N[C@@H](CC(N)=O)C(=O)N[C@@H](CC(N)=O)C(=O)N[C@H](C(=O)N[C@@H](CCCNC(=N)N)C(=O)N[C@@H](CC(C)C)C(=O)N[C@H](C(=O)N[C@@H](CCCCNC(=O)CCCCCN1C(=O)CC(SC[C@H](NC(=O)[C@H](C)NC(=O)[C@@H](NC(=O)[C@@H]2CCCN2C(=O)[C@@H](NC(=O)[C@@H](NC(=O)[C@H](CC(N)=O)NC(=O)[C@@H](NC(=O)CNC(=O)[C@H](Cc2ccccc2)NC(=O)[C@@H](N)Cc2ccccc2)[C@@H](C)CC)[C@@H](C)O)[C@@H](C)CC)[C@@H](C)CC)C(N)=O)C1=O)C(=O)N1CCC[C@H]1C(=O)N[C@@H](CCCCN)C(=O)NCC(=O)NCC(=O)N[C@@H](CC(C)C)C(=O)N[C@H](C(=O)N[C@@H](CC(=O)O)C(=O)N[C@H](C(=O)N[C@@H](C)C(=O)N1CCC[C@H]1C(=O)N[C@@H](Cc1c[nH]cn1)C(=O)N[C@@H](CCC(N)=O)C(=O)N[C@H](C(=O)N[C@@H](CO)C(=O)N[C@@H](CO)C(=O)N[C@H](C(N)=O)C(C)C)[C@@H](C)CC)[C@@H](C)CC)[C@@H](C)CC)[C@@H](C)O)[C@@H](C)O)C(C)C` (some centres unmarked) [pal-A(P)I, palmitoyl-KLVANNTRL-TKmal(FFGINTIPIAC)PKG-GLIDIAPHQISSV] (I: Palmitoyl-KLVANNTRLTKPKGGLIDIAPHQISSV-NH2 / II: H-FFGINTIPIAC-NH2; linker I:11-II:11 via X1), for which the “Hemolytic activity HC50 ± sd” value in data set [2] was above 100 µM. Besides, the water solubility result in data set [3] is listed as “very low water solubility”.
